Activity calls are given as the source filed them. How the calls were made is not given here.
Test system: CCRIS mutagenicity, Ames/micronucleus/aberration tests
Assay: CCRIS mutagenicity studies
[1] = Test System: AMES SALMONELLA TYPHIMURIUM, Strain/Indicator: TA100, Metabolic Activation: NONE, Method: PREINCUBATION
[2] = Test System: AMES SALMONELLA TYPHIMURIUM, Strain/Indicator: TA98, Metabolic Activation: NONE, Method: STANDARD PLATE
[3] = Test System: AMES SALMONELLA TYPHIMURIUM, Strain/Indicator: TA100, Metabolic Activation: NONE, Method: STANDARD PLATE

CC(=O)Nc1ccccc1
mutagenic call (Test System: AMES SALMONELLA TYPHIMURIUM, Strain/Indicator: TA97, Metabolic Activation: HAMSTER, LIVER, S-9, AROCLOR 1254 (10 OR 30%), Method: PREINCUBATION): inactive; negative
mutagenic call (Test System: AMES SALMONELLA TYPHIMURIUM, Strain/Indicator: TA97, Metabolic Activation: NONE, Method: PREINCUBATION): inactive; negative
mutagenic call (Test System: AMES SALMONELLA TYPHIMURIUM, Strain/Indicator: TA97, Metabolic Activation: RAT, LIVER, S-9, AROCLOR 1254 (10 OR 30%), Method: PREINCUBATION): inactive; negative
mutagenic call (Test System: AMES SALMONELLA TYPHIMURIUM, Strain/Indicator: TA98, Metabolic Activation: GUINEA PIG, LIVER, S-9, PCB, Method: PREINCUBATION): inactive; negative
mutagenic call (Test System: AMES SALMONELLA TYPHIMURIUM, Strain/Indicator: TA98, Metabolic Activation: HAMSTER, LIVER, S-9, AROCLOR 1254 (10 OR 30%), Method: PREINCUBATION): inactive; negative
mutagenic call (Test System: AMES SALMONELLA TYPHIMURIUM, Strain/Indicator: TA98, Metabolic Activation: HAMSTER, LIVER, S-9, PCB, Method: PREINCUBATION): inactive; negative
mutagenic call (Test System: AMES SALMONELLA TYPHIMURIUM, Strain/Indicator: TA98, Metabolic Activation: MOUSE, LIVER, S-9, PCB, Method: PREINCUBATION): inactive; negative
mutagenic call (Test System: AMES SALMONELLA TYPHIMURIUM, Strain/Indicator: TA98, Metabolic Activation: NONE, Method: PREINCUBATION): inactive; negative
mutagenic call (Test System: AMES SALMONELLA TYPHIMURIUM, Strain/Indicator: TA98, Metabolic Activation: RAT, LIVER, S-9, AROCLOR 1254 (10 OR 30%), Method: PREINCUBATION): inactive; negative
mutagenic call (Test System: AMES SALMONELLA TYPHIMURIUM, Strain/Indicator: TA98, Metabolic Activation: RAT, LIVER, S-9, PCB, Method: PREINCUBATION): inactive; negative
mutagenic call (Test System: AMES SALMONELLA TYPHIMURIUM, Strain/Indicator: TA100, Metabolic Activation: GUINEA PIG, LIVER, S-9, PCB, Method: PREINCUBATION): inactive; negative
mutagenic call (Test System: AMES SALMONELLA TYPHIMURIUM, Strain/Indicator: TA100, Metabolic Activation: HAMSTER, LIVER, S-9, AROCLOR 1254 (10 OR 30%), Method: PREINCUBATION): inactive; negative
mutagenic call (Test System: AMES SALMONELLA TYPHIMURIUM, Strain/Indicator: TA100, Metabolic Activation: HAMSTER, LIVER, S-9, PCB, Method: PREINCUBATION): inactive; negative
mutagenic call (Test System: AMES SALMONELLA TYPHIMURIUM, Strain/Indicator: TA100, Metabolic Activation: MOUSE, LIVER, S-9, PCB, Method: PREINCUBATION): inactive; negative
mutagenic call [1]: inactive; negative
mutagenic call (Test System: AMES SALMONELLA TYPHIMURIUM, Strain/Indicator: TA100, Metabolic Activation: RAT, LIVER, S-9, AROCLOR 1254 (10 OR 30%), Method: PREINCUBATION): inactive; negative
mutagenic call (Test System: AMES SALMONELLA TYPHIMURIUM, Strain/Indicator: TA100, Metabolic Activation: RAT, LIVER, S-9, PCB, Method: PREINCUBATION): inactive; negative
mutagenic call (Test System: AMES SALMONELLA TYPHIMURIUM, Strain/Indicator: TA1535, Metabolic Activation: HAMSTER, LIVER, S-9, AROCLOR 1254 (10 OR 30%), Method: PREINCUBATION): inactive; negative
mutagenic call (Test System: AMES SALMONELLA TYPHIMURIUM, Strain/Indicator: TA1535, Metabolic Activation: NONE, Method: PREINCUBATION): inactive; negative
mutagenic call (Test System: AMES SALMONELLA TYPHIMURIUM, Strain/Indicator: TA1535, Metabolic Activation: RAT, LIVER, S-9, AROCLOR 1254 (10 OR 30%), Method: PREINCUBATION): inactive; negative

CN(C(=O)CCl)c1snc2ccccc12
mutagenic call [2]: inactive; negative
mutagenic call (Test System: AMES SALMONELLA TYPHIMURIUM, Strain/Indicator: TA98, Metabolic Activation: S-9, Method: STANDARD PLATE): inactive; negative
mutagenic call [3]: inactive; negative
mutagenic call (Test System: AMES SALMONELLA TYPHIMURIUM, Strain/Indicator: TA100, Metabolic Activation: S-9, Method: STANDARD PLATE): inactive; negative
mutagenic call (Test System: AMES SALMONELLA TYPHIMURIUM, Strain/Indicator: TA1535, Metabolic Activation: NONE, Method: STANDARD PLATE): inactive; negative
mutagenic call (Test System: AMES SALMONELLA TYPHIMURIUM, Strain/Indicator: TA1535, Metabolic Activation: S-9, Method: STANDARD PLATE): inactive; negative
mutagenic call (Test System: AMES SALMONELLA TYPHIMURIUM, Strain/Indicator: TA1537, Metabolic Activation: NONE, Method: STANDARD PLATE): inactive; negative
mutagenic call (Test System: AMES SALMONELLA TYPHIMURIUM, Strain/Indicator: TA1537, Metabolic Activation: S-9, Method: STANDARD PLATE): inactive; negative

Cc1ccc(NC(=O)c2ccc(CN3CCN(C)CC3)cc2)cc1Nc1nccc(-c2cccnc2)n1
mutagenic call (End Point: IN VITRO CHROMOSOMAL ABERRATIONS, Test System: CHINESE HAMSTER EMBRYO (CHE), Metabolic Activation: NONE): active; positive (structural and numerical changes)
mutagenic call (End Point: IN VITRO CHROMOSOMAL ABERRATIONS, Test System: INDIAN MUNTJAK FIBROBLASTS (IMF), Metabolic Activation: NONE): active; positive (numerical changes)
mutagenic call (End Point: IN VITRO CHROMOSOMAL ABERRATIONS, Test System: NORMAL HUMAN DERMAL FIBROBLASTS (NHDF), Metabolic Activation: NONE): active; positive (structural changes)

N[C@@H](CS/C=C/Cl)C(=O)O
mutagenic call [1]: inactive; negative
mutagenic call (Test System: AMES SALMONELLA TYPHIMURIUM, Strain/Indicator: TA2638, Metabolic Activation: NONE, Method: PREINCUBATION): active; positive

CNC(=O)ON
mutagenic call [2]: active; positive
mutagenic call (Test System: AMES SALMONELLA TYPHIMURIUM, Strain/Indicator: TA98, Metabolic Activation: RAT, LIVER, S-9, Method: STANDARD PLATE): active; positive
mutagenic call [3]: active; positive
